Consider two molecules from BindingDB's records for doi:10.1021/jm0603668 (Merck Frosst Canada, 2007).

The assay in a line: Activity at human TP receptor in platelet rich plasma assessed as inhibition […]-induced platelet aggregation.

Molecules are shown by their SMILES.

`CC(=O)c1cc(F)cc2c3c(n(Cc4ccc(Cl)cc4)c12)[C@@H](CC(=O)O)CC3` [[(3R)-4-(4-chlorobenzyl)-7-fluoro-5-acetyl-1,2,3,4-tetrahydrocyclopenta-[b]indol-3-yl]acetic acid]: the IC50 was 1.4 µM.

`O=C(O)C[C@H]1CCc2c1n(Cc1ccc(Cl)cc1)c1c(Br)cc(F)cc21` [[(3R)-5-bromo-4-(4-chlorobenzyl)-7-fluoro-1,2,3,4-tetrahydrocyclopenta[b]indol-3-yl]acetic acid]: the IC50 was 0.08 µM.

The IC50 is the midpoint of a concentration-inhibition curve.
